# ChEMBL document CHEMBL5052824, “Novel sesquiterpenoid analogs” (2020)
# The source made the active and inactive calls. The calls are words filed in the database; no cut-off is given here.
# How the values were obtained:
# MDA-MB-231 [1] = assay: Binding affinity to cysteine residues of protein in human MDA-MB-231 lysates at 30 uM incubated for 1 hr and measured by SDS-PAGE analysis; assay type: subcellular
# MDA-MB-231 [2] = assay: Binding affinity to cysteine residue of protein in human MDA-MB-231 lysates at 30 uM incubated for 1 hr and measured in presence of cysteine-reactive reagent JW-RF-001 by SDS-PAGE analysis; assay type: subcellular
# HeLa [3] = assay: Induction of DNA damage in human HeLa cells at 30 uM assessed as increase in gamma-H2AX level and measured by DAPI staining method relative to control; assay type: functional, cell-based
# HeLa [4] = assay: Downregulation of PEA15 expression in POLE3 knocked down human HeLa cells and measured after 6 hrs; assay type: functional, cell-based
# HeLa [5] = assay: Induction of DNA damage in POLE3 knocked down human HeLa cells at 30 uM assessed as increase in gamma-H2AX level in presence of 30 uM etoposide and measured by DAPI staining method relative to control; assay type: functional, cell-based
# HeLa [6] = assay: Downregulation of DNA ligase 3 expression in POLE3 knocked down human HeLa cells and measured after 6 hrs; assay type: functional, cell-based
# HeLa [7] = assay: Downregulation of GEMIN2 expression in POLE3 knocked down human HeLa cells and measured after 6 hrs; assay type: functional, cell-based
# [8] = Upregulation of POLE expression in POLE3 knocked down human HeLa cells and measured as fold change after 6 hrs; assay type: functional
# [9] = target: T1, DNA polymerase epsilon subunit 3 (Homo sapiens) (UniProt Q9NRF9); assay: Binding affinity towards wild-type POLE3 overexpressed in human 293T cells measured after 1 hr by SDS-PAGE analysis; assay type: cell-based; conditions: HEK293T
# T1 sequence (whole entry): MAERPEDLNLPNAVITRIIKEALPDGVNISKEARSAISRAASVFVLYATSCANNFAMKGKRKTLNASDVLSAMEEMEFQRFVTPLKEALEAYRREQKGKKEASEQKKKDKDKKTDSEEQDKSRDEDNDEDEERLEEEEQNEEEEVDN
# HeLa [10] = assay: Downregulation of GIT2 expression in POLE3 knocked down human HeLa cells and measured after 6 hrs; assay type: functional, cell-based
# HeLa [11] = assay: Induction of DNA damage in human HeLa cells at 30 uM assessed as increase in gamma-H2AX level in presence of 30 uM etoposide and measured by DAPI staining method relative to control; assay type: functional, cell-based
Structure (SMILES),Activity (MDA-MB-231 [1]),Activity (MDA-MB-231 [2]),Activity (HeLa [3]),Activity (HeLa [4]),Activity (HeLa [5]),Activity (HeLa [6]),Activity (HeLa [7]),fold change (FC) [8],Kinact [9] [min⁻¹],Activity (HeLa [10]),Activity (HeLa [11])
C=C1C[C@@]2(C[C@H](C)[C@H]3CC=C(CN=[N+]=[N-])C(=O)[C@@H]3O2)OC1=O,Active,inactive,–,–,–,–,–,–,–,–,–
COc1cc([C@@H]2c3cc4c(cc3[C@@H](O[C@@H]3O[C@@H]5CO[C@@H](C)O[C@H]5[C@H](O)[C@H]3O)[C@H]3COC(=O)[C@H]23)OCO4)cc(OC)c1O,–,–,Active,–,–,–,–,–,–,–,–
C=C1C[C@@]2(C[C@H](C)[C@H]3CC=C(C)C(=O)[C@@H]3O2)OC1=O,–,–,inactive,Active,Active,Active,Active,4,0.27,Active,Active
